Values belong to the molecule of their own block, whether it stands above or below them.
Columns and labels:
[1] = Particle size, PDI and ζ-potential of mRNA-LNP (Zetasizer Nano ZS); type: physicochemical; conditions: mRNA-LNP formulation phospholipid:CL4F6:Chol:PEG-DMG 10:50:40:1.0, Fluc mRNA
Protocol: (§1) Ethanol solutions containing each phospholipid, CL4F6, Chol, and PEG2000-dimirystoylglycerol (PEG-DMG) at the molar ratio of 10:50:40:1.0 were prepared at the total lipid concentration of 16 mM. For fluorescent labeling of LNPs, 0.5 mol% of DiI or DiR was added to the above solutions. The firefly luciferase (Fluc)-encoding mRNA (TriLink) was dissolved in a 25 mM acetate buffer (pH 4.0). LNPs were prepared by mixing the lipids in ethanol and RNA in an aqueous solution using an iLiNP device at a total flow rate (TFR) of 0.5 mL/min and a flow rate ratio (FRR) (RNA flow rate/lipid flow rate) of 3. The nitrogen to phosphate (N/P) ratio was adjusted to 6. Syringe pumps (Harvard apparatus) were used to control the flow rate of the solutions. The resulting LNP solutions were then dialyzed for 2 hours or more at 4 °C against phosphate buffered saline without Ca^2+ and Mg^2+ (PBS(-)) using Spectra/Por 4 dialysis membranes (molecular weight cut-off 12,000-14,000 Da, Spectrum Laboratories). The LNP solutions were concentrated by ultrafiltration using an Amicon Ultra-15 unit (MWCO 100 kDa, Millipore) as needed.
(§2) The ζ-average particle size, polydispersity index (PDI), and ζ-potential of the LNPs were measured by means of a Zetasizer Nano ZS ZEN3600 instrument (Malvern Instruments). The encapsulation efficiency and total concentration of mRNA were measured by a Ribogreen assay according to a conventional method.

[2] = Ribogreen assay, mRNA encapsulation efficiency of LNP; type: physicochemical; conditions: mRNA-LNP formulation phospholipid:CL4F6:Chol:PEG-DMG 10:50:40:1.0, Fluc mRNA
Protocol: as §1, §2

- Number average particle size (nm) ([1]; Table 1): 56 nm
- PDI ([1]; Table 1): 0.08
- ζ-potential (mV) ([1]; Table 1): -3.6 mV
- ζ-average particle size (nm) ([1]; Table 1, N/P 6): 75 nm
- mRNA encapsulation rate % ([2]; Table 1): 95.7%
Compound: CCCCCCCCCCCCCCCCCC(=O)OC[C@H](COP(=O)([O-])OCC[N+](C)(C)C)OC(=O)CCCCCCCCCCCCCCCCC [DSPC, 1,2-Distearoyl-sn-glycero-3-phosphocholine, reference compound]

Compound: CCCCCCCC/C=C\CCCCCCCC(=O)OC[C@H](COP(=O)(O)OCCNCCC(=O)OCCCC)OC(=O)CCCCCCC/C=C\CCCCCCCC [DOPE-C4, (R)-2,3-bis(oleoyloxy)propyl (2-((3-butoxy-3-oxopropyl)ammonio)ethyl) phosphate]
- Number average particle size (nm) ([1]; Table 1): 58 nm
- PDI ([1]; Table 1): 0.17
- ζ-potential (mV) ([1]; Table 1): -5.0 mV
- ζ-average particle size (nm) ([1]; Table 1, N/P 6): 87 nm
- mRNA encapsulation rate % ([2]; Table 1): 91.2%

- Number average particle size (nm) ([1]; Table 1): 59 nm
- PDI ([1]; Table 1): 0.15
- ζ-potential (mV) ([1]; Table 1): -1.4 mV
- ζ-average particle size (nm) ([1]; Table 1, N/P 6): 86 nm
- mRNA encapsulation rate % ([2]; Table 1): 91.5%
Compound: CCCCCCCC/C=C\CCCCCCCC(=O)OC[C@H](COP(=O)(O)OCCNCCC(=O)OCCCCCC)OC(=O)CCCCCCC/C=C\CCCCCCCC [DOPE-C6, (R)-2,3-bis(oleoyloxy)propyl (2-((3-(hexyloxy)-3-oxopropyl)ammonio)ethyl) phosphate]

- Number average particle size (nm) ([1]; Table 3): 52 nm
- PDI ([1]; Table 3): 0.21
- ζ-average particle size (nm) ([1]; Table 3): 91 nm
- ζ-potential (mV) ([1]; Table 3): -12.0 mV
- mRNA encapsulation rate % ([2]; Table 3): 97.1%
Compound: CCCCCCCC/C=C\CCCCCCCC(=O)OC[C@H](COP(=O)(O)OCCNCCC(=O)OC(CCC)CCC)OC(=O)CCCCCCC/C=C\CCCCCCCC [DOPE-C4_α3, (R)-2,3-bis(oleoyloxy)propyl (2-((3-(heptan-4-yloxy)-3-oxopropyl)ammonio)ethyl) phosphate]

- Number average particle size (nm) ([1]; Table 3): 54 nm
- PDI ([1]; Table 3): 0.20
- ζ-average particle size (nm) ([1]; Table 3): 91 nm
- ζ-potential (mV) ([1]; Table 3): -10.5 mV
- mRNA encapsulation rate % ([2]; Table 3): 97.2%
Compound: CCCCCCCC/C=C\CCCCCCCC(=O)OC[C@H](COP(=O)(O)OCCNCCC(=O)OC(CC)CC)OC(=O)CCCCCCC/C=C\CCCCCCCC [DOPE-C3_α2, (R)-2,3-bis(oleoyloxy)propyl (2-((3-oxo-3-(pentan-3-yloxy)propyl)ammonio)ethyl) phosphate]

- Number average particle size (nm) ([1]; Table 2): 65 nm
- PDI ([1]; Table 2): 0.07
- ζ-average particle size (nm) ([1]; Table 2): 85 nm
- ζ-potential (mV) ([1]; Table 2): -6.1 mV
- mRNA encapsulation rate % ([2]; Table 2): 95.9%
Compound: CCCCCCCC/C=C\CCCCCCCC(=O)OC[C@H](COP(=O)(O)OCCNCCC(=O)OCCC(C)CCC=C(C)C)OC(=O)CCCCCCC/C=C\CCCCCCCC (stereo partly drawn) [DOPE-Cit, (R)-2,3-bis(oleoyloxy)propyl (2-((3-((3,7-dimethyloct-6-en-1-yl)oxy)-3-oxopropyl)ammonio)ethyl) phosphate]

- Number average particle size (nm) ([1]; Table 2): 60 nm
- PDI ([1]; Table 2): 0.21
- ζ-average particle size (nm) ([1]; Table 2): 94 nm
- ζ-potential (mV) ([1]; Table 2): -6.4 mV
- mRNA encapsulation rate % ([2]; Table 2): 95.9%
Compound: CCCCCCCC/C=C\CCCCCCCC(=O)OC[C@H](COP(=O)(O)OCCNCCC(=O)OCC(C)CCC)OC(=O)CCCCCCC/C=C\CCCCCCCC (stereo partly drawn) [DOPE-C5_β1, (R)-2,3-bis(oleoyloxy)propyl (2-((3-((2-methylpentyl)oxy)-3-oxopropyl)ammonio)ethyl) phosphate]

From patent publication EP4796551A1, “ZWITTERIONIC PHOSPHOLIPID COMPOUND AND LIPID NANOPARTICLE CONTAINING THE SAME” (National University Corporation Hokkaido University, priority 2023, dated 2025)
